From patent US9822110B2, “Sulfonamide derivative and pharmaceutical use thereof” (EA Pharma Co., Ltd., priority 2013, dated 2017) come the findings set out here.

Some results are limits rather than exact numbers.

The target of the assay is T1, MAdCAM-1/α4β7 integrin (Homo sapiens, UniProt P13612+P26010).
T1 construct: a human B-cell line known to express α4β7 integrin; endogenous in cells; host or cells: RPMI-8866 (human B-cell line)
T1 sequence (P13612 34-1032): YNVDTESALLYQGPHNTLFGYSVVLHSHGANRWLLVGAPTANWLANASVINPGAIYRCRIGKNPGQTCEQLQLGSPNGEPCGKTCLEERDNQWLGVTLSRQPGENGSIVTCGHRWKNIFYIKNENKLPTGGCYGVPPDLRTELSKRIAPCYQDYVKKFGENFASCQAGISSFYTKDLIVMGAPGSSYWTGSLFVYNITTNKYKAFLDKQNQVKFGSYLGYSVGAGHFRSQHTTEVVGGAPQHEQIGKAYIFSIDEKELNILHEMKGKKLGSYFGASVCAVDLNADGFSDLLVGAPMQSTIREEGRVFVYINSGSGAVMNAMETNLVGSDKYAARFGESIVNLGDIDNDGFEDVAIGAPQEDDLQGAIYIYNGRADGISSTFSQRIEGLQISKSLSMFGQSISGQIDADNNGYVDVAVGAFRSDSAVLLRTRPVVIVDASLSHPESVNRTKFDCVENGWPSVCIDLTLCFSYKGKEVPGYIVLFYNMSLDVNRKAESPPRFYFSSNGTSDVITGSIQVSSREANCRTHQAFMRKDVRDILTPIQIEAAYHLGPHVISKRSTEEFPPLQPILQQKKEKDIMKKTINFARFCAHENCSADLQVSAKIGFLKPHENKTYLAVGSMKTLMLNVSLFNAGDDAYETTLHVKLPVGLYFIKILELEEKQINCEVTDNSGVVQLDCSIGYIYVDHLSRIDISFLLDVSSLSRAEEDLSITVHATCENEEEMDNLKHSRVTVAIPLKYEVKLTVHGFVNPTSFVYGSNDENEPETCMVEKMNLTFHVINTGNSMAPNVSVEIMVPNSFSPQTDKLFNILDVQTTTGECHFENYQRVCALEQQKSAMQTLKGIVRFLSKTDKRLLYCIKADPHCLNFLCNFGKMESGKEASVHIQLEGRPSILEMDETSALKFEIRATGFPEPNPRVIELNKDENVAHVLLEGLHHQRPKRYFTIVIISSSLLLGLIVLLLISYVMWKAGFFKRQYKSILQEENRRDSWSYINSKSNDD
T1 sequence (P26010 20-798): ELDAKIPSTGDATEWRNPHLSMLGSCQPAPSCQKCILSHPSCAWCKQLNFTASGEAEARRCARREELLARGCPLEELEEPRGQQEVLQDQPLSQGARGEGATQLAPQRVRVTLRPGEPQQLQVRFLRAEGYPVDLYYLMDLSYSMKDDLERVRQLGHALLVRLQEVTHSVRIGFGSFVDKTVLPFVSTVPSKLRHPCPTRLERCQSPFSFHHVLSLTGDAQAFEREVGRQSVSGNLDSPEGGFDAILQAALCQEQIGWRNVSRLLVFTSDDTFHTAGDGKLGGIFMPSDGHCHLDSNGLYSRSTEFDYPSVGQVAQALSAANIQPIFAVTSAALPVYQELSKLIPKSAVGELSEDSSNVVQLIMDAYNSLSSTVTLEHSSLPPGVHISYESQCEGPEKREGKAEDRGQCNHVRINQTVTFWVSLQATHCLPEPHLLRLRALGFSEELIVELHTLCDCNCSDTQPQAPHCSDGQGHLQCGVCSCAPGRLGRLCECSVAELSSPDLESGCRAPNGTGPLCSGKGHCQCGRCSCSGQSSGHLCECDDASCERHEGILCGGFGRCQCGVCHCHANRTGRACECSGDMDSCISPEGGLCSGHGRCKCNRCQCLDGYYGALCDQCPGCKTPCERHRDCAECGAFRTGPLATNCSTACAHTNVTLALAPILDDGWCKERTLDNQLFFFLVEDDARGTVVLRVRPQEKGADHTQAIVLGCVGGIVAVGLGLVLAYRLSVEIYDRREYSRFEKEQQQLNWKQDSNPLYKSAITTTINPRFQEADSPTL
The experiment in a line: Evaluation test (1) for MAdCAM-1/α4β7 integrin binding inhibitory activity in the presence of serum (RPMI-8866 cell binding to MAdCAM-1/Fc). Type of assay: cell-based. Conditions: RPMI-8866 cells, recombinant mouse MAdCAM-1/Fc, human serum at final concentration of 50%; read-out: α4β7 Serum Activity rank when α4β7 serum was added. The procedure: The selectivity was determined by dividing the IC50 value in the evaluation test for VCAM-1/α4β1 integrin binding inhibitory activity by the IC50 value in the evaluation test for MAdCAM-1/α4β7 integrin binding inhibitory activity. • (3) Evaluation Test (1) for MAdCAM-1/α4β7 Integrin Binding Inhibitory Activity in the Presence of Serum
The ability of test substances to inhibit the binding of RPMI-8866 cell line, a human B-cell line known to express α4β7 integrin, to MAdCAM-1 was examined.
A 96-well microtiter plate was coated overnight at 4° C. with a recombinant mouse MAdCAM-1/Fc (R&D systems) solution diluted with the buffer A (carbonate buffer, pH 9.6). After washing once with PBS, 150 μL/well of Block Ace (manufactured by Snow Brand Milk Products Co., Ltd.) was added, and it was incubated at room temperature for 2 hours. After removal, it was washed once with PBS.
100 μL of each of test substances and RPMI-8866 cells diluted with a binding buffer solution (DMEM containing 40 mM HEPES, 0.2% BSA, and 4 mM MnCl2) to various concentrations was added to the plate coated with MAdCAM-1/Fc, so that human serum was contained at a final concentration of 50%, and it was incubated at 30° C. for 15 minutes to 60 minutes. After the cells were bound to the wells, unbound cells were removed by washing with PBS. 50 μL/well of the buffer solution C (PBS containing 1.5% Triton X-100) was added to the plate to dissolve the bound RPMI-8866 cells. 30 μL of substrate buffer (Promega, CytoTox 96 Non-Radioactive Cytotoxicity Assay) was added to 30 μL of a cell lysate to allow a reaction for 30 minutes at room temperature in a dark place. 30 μL of stop solution (Promega, CytoTox 96 Non-Radioactive Cytotoxicity Assay) was added thereto to determine the absorbance at 490 nm using a plate reader. The absorbance was obtained herein by detecting the activity of lactate dehydrogenase (LDH) eluted in a supernatant of each well, that is, the absorbance is proportional to the number of RPMI-8866 cells remaining on the plate by being bound to MAdCAM-1. The test was duplicated, and the cell binding rate at various concentrations with the absorbance of the well containing no test substance being taken as 100% was determined, to calculate the concentration IC50 at which 50% of binding was inhibited.

Regarding `COc1cc2c(=O)n(-c3ccc(C[C@H](NC(=O)c4cc(F)c(NS(=O)(=O)c5ccc(-c6cnc(COC(C)C)nc6)cc5)cc4F)C(=O)O)nc3)c(=O)n(C)c2cn1` [Example 41, (2S)-2-[[2,5-Difluoro-4-[[4-[2-(isopropoxymethyl)pyrimidin-5-yl]phenyl]sulfonylamino]benzoyl]amino]-3-[5-(6-methoxy-1-methyl-2,4-dioxo-pyrido[3,4-d]pyrimidin-3-yl)-2-pyridyl]propanoic acid], the IC50 is more than 0.2 µM. As for `CC(C)OCc1ncc(-c2ccc(S(=O)(=O)Nc3cc(F)c(C(=O)N[C@@H](Cc4ccc(-n5c(=O)ccn(C)c5=O)cc4)C(=O)O)cc3F)cc2)cn1` [Example 42, (2S)-2-[[2,5-Difluoro-4-[[4-[2-(isopropoxymethyl)pyrimidin-5-yl]phenyl]sulfonylamino]benzoyl]amino]-3-[4-(3-methyl-2,6-dioxo-pyrimidin-1-yl)phenyl]propanoic acid], the IC50 fell in the range of 0.05 to 0.2 µM.

`CC(C)OCc1ncc(-c2ccc(S(=O)(=O)Nc3cc(F)c(C(=O)N[C@@H](Cc4ccc(-n5c(=O)c6cncnc6n(C)c5=O)cn4)C(=O)O)cc3F)cc2)cn1` [Example 43, (2S)-2-[[2,5-Difluoro-4-[[4-[2-(isopropoxymethyl)pyrimidin-5-yl]phenyl]sulfonylamino]benzoyl]amino]-3-[5-(1-methyl-2,4-dioxo-pyrimido[4,5-d]pyrimidin-3-yl)-2-pyridyl]propanoic acid]: the IC50 was more than 0.2 µM. In the case of `CC(C)OCc1ncc(-c2ccc(S(=O)(=O)Nc3cc(F)c(C(=O)N[C@@H](Cc4ccc(-n5c(=O)cc(C(F)(F)F)n(C)c5=O)cc4)C(=O)O)cc3F)cc2)cn1` [Example 44, (2S)-2-[[2,5-Difluoro-4-[[4-[2-(isopropoxymethyl)pyrimidin-5-yl]phenyl]sulfonylamino]benzoyl]amino]-3-[4-[3-methyl-2,6-dioxo-4-(trifluoromethyl)pyrimidin-1-yl]phenyl]propanoic acid] it was 0.05 to 0.2 µM; in that of `CCc1ncc(-c2ccc(S(=O)(=O)Nc3c(F)c(F)c(C(=O)N[C@@H](Cc4ccc(-c5c(C)n(C)c(=O)n(C)c5=O)cc4)C(=O)O)c(F)c3F)cc2)cn1` [Example 45, (2S)-2-[[4-[[4-(2-Ethylpyrimidin-5-yl)phenyl]sulfonylamino]-2,3,5,6-tetrafluoro-benzoyl]amino]-3-[4-(1,3,4-trimethyl-2,6-dioxo-pyrimidin-5-yl)phenyl]propanoic acid], 0.01 to 0.05 µM.

Regarding `Cc1cc(-c2ccccn2)ccc1S(=O)(=O)Nc1ccc(C(=O)N[C@@H](Cc2ccc(-c3c(C)n(C)c(=O)n(C)c3=O)cc2)C(=O)O)c(F)c1` [Example 46, (2S)-2-[[2-Fluoro-4-[[2-methyl-4-(2-pyridyl)phenyl]sulfonylamino]benzoyl]amino]-3-[4-(1,3,4-trimethyl-2,6-dioxo-pyrimidin-5-yl)phenyl]propanoic acid], the IC50 is more than 0.2 µM.

For the compound `Cc1c(-c2ccc(C[C@H](NC(=O)c3c(F)cc(NS(=O)(=O)c4ccc(C(=O)NC5CC5)cc4)cc3F)C(=O)O)cc2)c(=O)n(C)c(=O)n1C` [Example 47], the IC50 lay in the range of 0.01 to 0.05 µM. Regarding `COCc1ncc(-c2ccc(S(=O)(=O)Nc3cc(F)c(C(=O)N[C@@H](Cc4ccc(-n5c(=O)c6ccncc6n(C)c5=O)nc4)C(=O)O)cc3F)cc2)cn1` [Example 51, (2S)-2-[[2,5-Difluoro-4-[[4-[2-(methoxymethyl)pyrimidin-5-yl]phenyl]sulfonylamino]benzoyl]amino]-3-[6-(1-methyl-2,4-dioxo-pyrido[3,4-d]pyrimidin-3-yl)-3-pyridyl]propanoic acid], the IC50 is 0.01 to 0.05 µM.

As to `CC(C)OCc1ncc(-c2ccc(S(=O)(=O)Nc3cc(F)c(C(=O)N[C@@H](Cc4ccc(-n5c(=O)c6ccncc6n(C)c5=O)cc4)C(=O)O)cc3F)cc2)cn1` [Example 85], the IC50 lay within 0.01 to 0.05 µM. In the case of `Cc1c(-c2ccc(C[C@H](NC(=O)c3cc(F)c(NS(=O)(=O)c4ccc(-c5cnc(C6CCOCC6)nc5)cc4)cc3F)C(=O)O)cc2)c(=O)n(C)c(=O)n1C` [Example 86, (2S)-2-[[2,5-Difluoro-4-[[4-(2-tetrahydropyran-4-ylpyrimidin-5-yl)phenyl]sulfonylamino]benzoyl]amino]-3-[4-(1,3,4-trimethyl-2,6-dioxopyrimidin-5-yl)phenyl]propanoic acid], the IC50 lay in the range of 0.01 to 0.05 µM. In the case of `Cc1c(-c2ccc(C[C@H](NC(=O)c3cc(F)c(NS(=O)(=O)c4ccc(C5CCOCC5)cc4)cc3F)C(=O)O)cc2)c(=O)n(C)c(=O)n1C` [Example 87, (2S)-2-[[2,5-Difluoro-4-[(4-tetrahydropyran-4-ylphenyl)sulfonylamino]benzoyl]amino]-3-[4-(1,3,4-trimethyl-2,6-dioxopyrimidin-5-yl)phenyl]propanoic acid] it was more than 0.2 µM. For `Cc1c(-c2ccc(C[C@H](NC(=O)c3cc(F)c(NS(=O)(=O)c4ccc(-c5cnc(C(C)C)nc5)cc4)cc3F)C(=O)O)cc2)c(=O)n(C)c(=O)n1C` [Example 88], the IC50 fell in the range of 0.05 to 0.2 µM. As for `Cc1c(-c2ccc(C[C@H](NC(=O)c3cc(F)c(NS(=O)(=O)c4ccc(-c5cnc(C6CCOCC6)nc5)cc4)cc3F)C(=O)O)nc2)c(=O)n(C)c(=O)n1C` [Example 89, (2S)-2-[[2,5-Difluoro-4-[[4-(2-tetrahydropyran-4-ylpyrimidin-5-yl)phenyl]sulfonylamino]benzoyl]amino]-3-[5-(1,3,4-trimethyl-2,6-dioxopyrimidin-5-yl)-2-pyridyl]propanoic acid], the figure is more than 0.2 µM.
